Molecules are shown by their SMILES. pIC50: −log10 of the molar value.

Broadly, the pIC50 is the negative decadic logarithm of the IC50, by convention in mol/L. The low end stands for a high IC50, the high end for a low IC50.

The test system of this assay is HEK293 cells. Description: Viability assay in HEK293 cells (CellTiter-Glo Luminescent Cell Viability Assay). It counts as cell-based. The following applies: Homo sapiens, 7 days (168 h) incubation, compound 3 μM to 0.00015 μM, ATP luminescence. As to the method: Viability Assay in HEK293 Cells
A viability assay was performed using the CellTiter-Glo® Luminescent Cell Viability Assay (see Promega Corporation's Technical Bulletin No. 288, pp. 1-11 [revised 2/04] which is hereby incorporated by reference in its entirety). This assay is a homogeneous method of determining the number of viable cells in culture based on quantitation of the ATP present, an indicator of metabolically active cells. The assay is designed for use with multiwell formats, making it ideal for automated high-throughput screening (HTS), cell proliferation and cytotoxicity assays. The homogeneous assay procedure involves adding a single reagent (containing luciferase, luciferan substrate, and buffer) directly to cells cultured in serum-supplemented medium. Cell washing, removal of medium and multiple pipetting steps are not required. The system detects as few as 15 cells/well in a 384-well format in 10 minutes after adding reagent and mixing.
The homogeneous “add-mix-measure” format results in cell lysis and generation of a luminescent signal proportional to the amount of ATP present. The amount of ATP is directly proportional to the number of cells present in culture. The above-referenced assay generates a “glow-type” luminescent signal, produced by the luciferase reaction, which has a half-life generally greater than five hours, depending on cell type and medium used. The extended half-life eliminates the need to use reagent injectors and provides flexibility for continuous or batch mode processing of multiple plates. The unique homogeneous format avoids errors that may be introduced by other ATP measurement methods that require multiple steps.
HEK293 cells (human embryonic kidney cell line transformed by Adenovirus 5 fragments, ATCC-No. CRL 1573) were cultivated in Dulbecco's Modified Eagle Medium (DMEM) with Glutamax™ (cell culture media that contains L-Alanyl-L-Glutamine [a stabilized form/source of L-Glutamine] from Invitrogen, Cat-No. 31966-021), 5% Fetal Calf Serum (FCS, Sigma Cat-No. F4135 (FBS)), 100 Units/ml penicillin/100 μg/ml streptomycin (=Pen/Strep from Invitrogen Cat. No. 15140). For the assay the cells were seeded in 384 well plates, 5000 cells per well, in the same medium. The next day the test compounds were added in various concentrations ranging from 3 μM to 0.00015 μM (10 concentrations, 1:3 diluted). After 7 days the viability assay was done according to the instructions of the manufacturer. In brief: the cell-plate was equilibrated to room temperature for approximately 30 minutes and than the reagent (containing luciferase, luciferan substrate, and buffer) was added. The contents were carefully mixed for 15 minutes to induce cell lysis. After 45 minutes the luminescent signal was measured in Victor 2, (scanning multiwell spectrophotometer, Wallac).
Medium: Dulbecco's Modified Eagle Medium (DMEM) with Glutamax™ (Invitrogen, 31966-021), 5% Fetal Calf Serum (FCS, Sigma Cat-No. F4135 (FBS)), Pen/Strep (Invitrogen Cat. No. 15140).
Incubate 24 h at 37° C., 5% CO2
2. day Induction (Substance testing):
In general the dilution steeps are 1:3 a) Add 8 μl of 10 mM stock solution of compound to 72 μl DMSO b) dilute 9×1:3 (always 30 μl to 60 μl DMSO) in this DMSO dilution row (results in 10 wells with concentrations from 1000 μM to 0.06 μM) c) dilute each concentration 1:4.8 (10 μl compound dilution to 38 μd medium) d) dilute each concentration 1:10 (10 μl compound dilution to 90 μl medium) e) add 10 μl of every concentration to 60 μl medium in the cell plate resulting in final concentration of DMSO: 0.3% in every well and resulting in final concentration of compounds from 3 μM to 0.00015 μM Incubate 168 h (7 days) at 37° C., 5% CO2
Add 30 μl CellTiter-Glo™ Reagent (containing luciferase, luciferan substrate, and buffer)/well, shake 15 minutes at room temperature incubate further 45 minutes at room temperature without shaking.
Victor 2 scanning multiwell spectrophotometer (Wallac), Luminescence mode […]
Background: Cellular ATP, detected with luciferase, serves as a proxy for viable cell number.
Turning to `Cc1cc(OCc2ccc(-c3ccc(F)cc3)nc2C)ccc1CCCCn1ccnn1` [Example 17, 6-(4-Fluoro-phenyl)-2-methyl-3-[3-Methyl-4-(4-[1,2,3]triazol-1-yl-butyl)-phenoxymethyl]-pyridine], the pIC50 was 6.00 to 8.30.
In the case of `Cc1cc(OCc2ccc(-c3ccc(Cl)cc3)nc2C)ccc1CCCCn1ccnn1` [Example 21, 6-(4-Chloro-phenyl)-2-methyl-3-[3-Methyl-4-(4-[1,2,3]triazol-1-yl-butyl)-phenoxymethyl]-pyridine] it was 6.00 to 8.30.
Compound `Cc1nc(-c2ccc(Cl)cc2)ccc1COc1ccc(CCCCn2ccnn2)cc1` [Example 20, 6-(4-Chloro-phenyl)-2-methyl-3-[4-(4-[1,2,3]triazol-1-yl-butyl)-phenoxymethyl]-pyridine] had a pIC50 of 6.00 to 8.30.
As to `Cc1cc(OCc2ccc(-c3cccc(C(F)(F)F)c3)nc2)ccc1CCCCn1ccnn1` [Example 26, 5-[3-Methyl-4-(4-[1,2,3]triazol-1-yl-butyl)-phenoxymethyl]-2-(3-trifluoromethyl-phenyl)-pyridine], the negative-log IC50 (pIC50) was 5.30 to 6.00.
`Cc1cc(OCc2ccc(-c3ccc(OC(F)(F)F)cc3)nc2)ccc1CCCCn1ccnn1` [Example 4, 5-[3-Methyl-4-(4-[1,2,3]triazol-1-yl-butyl)-phenoxymethyl]-[2-(4-trifluoromethoxy-phenyl)]-pyridine] had a pIC50 of 6.44.
In the case of `Cc1cc(OCc2cccc(-c3ccc(OC(F)(F)F)cc3)n2)ccc1CCCCn1ccnn1` [Example 30, 2-[3-Methyl-4-(4-[1,2,3]triazol-1-yl-butyl)-phenoxymethyl]-6-(4-trifluoromethoxy-phenyl)-pyridine] it was 5.30 to 6.00.
`Cc1nc(-c2ccc(C(F)(F)F)cc2)ccc1COc1ccc(CCCCn2ccnn2)cc1` [Example 7, 2-Methyl-3-[4-(4-[1,2,3]triazol-1-yl-butyl)-phenoxymethyl]-6-(4-trifluoromethyl-phenyl)-pyridine] showed a pIC50 of 6.00 to 8.30.
In the case of `Cc1cc(OCc2ccc(-c3ccc(C(F)(F)F)cc3)nc2)ccc1CCCCn1ccnn1` [Example 5, 5-[3-Methyl-4-(4-[1,2,3]triazol-1-yl-butyl)-phenoxymethyl]-2-(4-trifluoromethyl-phenyl)-pyridine] it was 7.05; in that of `Cc1nc(-c2ccc(C(F)(F)F)cc2)ccc1COc1ccc(COCCn2ccnn2)cc1` [Example 8, 2-Methyl-3-[4-(2-[1,2,3]triazol-1-yl-ethoxymethyl)-phenoxymethyl]-6-(4-trifluoromethyl-phenyl)-pyridine], 6.00 to 8.30; in that of `Cc1cc(OCc2ccc(-c3ccc(OC(F)(F)F)cc3)nc2C)ccc1CCCCn1ccnn1` [Example 11, 2-Methyl-3-[3-Methyl-4-(4-[1,2,3]triazol-1-yl-butyl)-phenoxymethyl]-6-(4-trifluoromethoxy-phenyl)-pyridine], 6.00 to 8.30.
In turn, `Clc1ccc(-c2cccc(COc3ccc(CCCCn4ccnn4)cc3)n2)cc1` [Example 35, 2-(4-Chloro-phenyl)-6-[4-(4-[1,2,3]triazol-1-yl-butyl)-phenoxymethyl]-pyridine] showed a pIC50 of 5.30 to 6.00.
In the case of `Clc1ccc(-c2ccc(COc3ccc(CCCCn4ccnn4)cc3)cn2)cc1` [Example 27, 2-(4-Chloro-phenyl)-5-[4-(4-[1,2,3]triazol-1-yl-butyl)-phenoxymethyl]-pyridine] it was 6.00 to 8.30; in that of `Cc1cc(OCc2cncc(-c3ccc(Cl)cc3)c2)ccc1CCCCn1ccnn1` [Example 38, 3-(4-Chloro-phenyl)-5-[3-methyl-4-(4-[1,2,3]triazol-1-yl-butyl)-phenoxymethyl]-pyridine], 5.30 to 6.00; in that of `Cc1cc(OCc2cccc(-c3ccc(C(F)(F)F)cc3)n2)ccc1CCCCn1ccnn1` [Example 19, 2-[3-Methyl-4-(4-[1,2,3]triazol-1-yl-butyl)-phenoxymethyl]-6-(4-trifluoromethyl-phenyl)-pyridine], 6.00 to 8.30.
In the case of `Cc1cc(OCc2ccc(-c3cccc(C(F)(F)F)c3)nc2C)ccc1CCCCn1ccnn1` [Example 13, 2-Methyl-3-[3-Methyl-4-(4-[1,2,3]triazol-1-yl-butyl)-phenoxymethyl]-6-(3-trifluoromethyl-phenyl)-pyridine] it was 5.30 to 6.00; in that of `FC(F)(F)c1ccc(-c2ccc(COc3ccc(CCCCn4ccnn4)cc3)cn2)cc1` [Example 3, 5-[4-(4-[1,2,3]triazol-1-yl-butyl)-phenoxymethyl]-[2-(4-trifluoromethyl-phenyl)]-pyridine], 6.00 to 8.30.
To `FC(F)(F)c1ccc(-c2cncc(COc3ccc(CCCCn4ccnn4)cc3)c2)cc1` [Example 33, 3-[4-(4-[1,2,3]Triazol-1-yl-butyl)-phenoxymethyl]-5-(4-trifluoromethyl-phenyl)-pyridine] belongs 5.30 to 6.00.
Compound `Cc1nc(-c2ccc(C(F)(F)F)cc2)ccc1COc1ccc(CSCCn2ccnn2)cc1` [Example 22, 2-Methyl-3-[4-(2-[1,2,3]triazol-1-yl-ethylsulfanylmethyl)-phenoxymethyl]-6-(4-trifluoromethyl-phenyl)-pyridine] had a pIC50 of 6.00 to 8.30.
In the case of `Cc1nc(-c2ccc(F)cc2)ccc1COc1ccc(CCCCn2ccnn2)cc1` [Example 16, 6-(4-Fluoro-phenyl)-2-methyl-3-[4-(4-[1,2,3]triazol-1-yl-butyl)-phenoxymethyl]-pyridine] it was 6.00 to 8.30; in that of `FC(F)(F)c1ccc(-c2cccc(COc3ccc(CCCCn4ccnn4)cc3)n2)cc1` [Example 18, 2-[4-(4-[1,2,3]triazol-1-yl-butyl)-phenoxymethyl]-6-(4-trifluoromethyl-phenyl)-pyridine], 5.30 to 6.00.
In the case of `Cc1cc(OCc2ccc(-c3ccc(C(F)(F)F)cc3F)nc2C)ccc1CCCCn1ccnn1` [Example 42, 6-(2-Fluoro-4-trifluoromethyl-phenyl)-2-methyl-3-[3-methyl-4-(4-[1,2,3]triazol-1-yl-butyl)-phenoxymethyl]-pyridine] it was 6.00 to 8.30; in that of `Cc1cc(OCc2ccc(-c3ccc(Cl)cc3)nc2)ccc1CCCCn1ccnn1` [Example 28, 2-(4-Chloro-phenyl)-5-[3-methyl-4-(4-[1,2,3]triazol-1-yl-butyl)-phenoxymethyl]-pyridine], 5.30 to 6.00; in that of `Cc1nc(-c2ccc(C(F)(F)F)cc2F)ccc1COc1ccc(CCCCn2ccnn2)cc1` [Example 43, 6-(2-Fluoro-4-trifluoromethyl-phenyl)-2-methyl-3-[4-(4-[1,2,3]triazol-1-yl-butyl)-phenoxymethyl]-pyridine], 5.30 to 6.00.
To `Cc1cc(OCc2ccc(-c3cccc(OC(F)(F)F)c3)nc2C)ccc1CCCCn1ccnn1` [Example 15, 2-Methyl-3-[3-Methyl-4-(4-[1,2,3]triazol-1-yl-butyl)-phenoxymethyl]-6-(3-trifluoromethoxy-phenyl)-pyridine] belongs 5.30 to 6.00; to `Cc1nc(-c2ccc(F)cc2)ccc1COc1ccc(CSCCn2ccnn2)cc1` [Example 23, 6-(4-Fluoro-phenyl)-2-methyl-3-[4-(2-[1,2,3]triazol-1-yl-ethylsulfanylmethyl)-phenoxymethyl]-pyridine], 5.30 to 6.00.
In turn, `Cc1cc(OCc2ccc(-c3ccc(C(F)(F)F)cc3)nc2C)ccc1CCCCn1ccnn1` [Example 6, 2-Methyl-3-[3-Methyl-4-(4-[1,2,3]triazol-1-yl-butyl)-phenoxymethyl]-6-(4-trifluoromethyl-phenyl)-pyridine] showed a pIC50 of 6.00 to 8.30.
Turning to `Cc1nc(-c2ccc(C(F)(F)F)cc2)ccc1COc1ccc(C[S+]([O-])CCn2ccnn2)cc1` (stereo not drawn) [Example 9, 2-Methyl-3-[4-(2-[1,2,3]triazol-1-yl-ethanesulfinylmethyl)-phenoxymethyl]-6-(4-trifluoromethyl-phenyl)-pyridine], the pIC50 was 5.30 to 6.00.

Source of the values: patent US7429605B2, “Phenylpyridine derivatives” (Hoffmann-La Roche Inc., priority 2005, dated 2008).
